Source: patent US20200370087A1, “METHOD FOR DETERMINING MICROBIAL SUSCEPTIBILITY TO ANTIBIOTIC AGENTS” (Ascilion AB, priority 2017, published 2020)
Values after ≈ are worked out from the molar mass of the structure shown.

Legend:
[1] = tested on: Staphylococcus aureus ATCC 29213; conditions: S.aureus, cited from earlier work; for MIC, EUCAST, range in parentheses: range obtained by EUCAST from ISO 20776-1: 2006; for MIC, EUCAST: reference value, Mueller-Hinton agar, incubation 18±2 h
[2] = tested on: Escherichia coli ATCC 25922; conditions: E.coli, cited from earlier work
[3] = tested on: Escherichia coli (ATCC 25922); assay: Glucose consumption susceptibility test, blood culture diluted in MHB with glucose (Example 1); assay type: cell-based; design: glucose concentration, t = 0 / glucose concentration, t = 60 / glucose concentration, t = 120 / glucose concentration, t = 180 / dC/dT (rate of change in glucose concentration) / glucose concentration, t = 240: unit not given here; conditions: for F = the rate of change in glucose concentration in relation to the reference / dC/dT (rate of change in glucose concentration) / glucose concentration, t = 0 / glucose concentration, t = 60 / glucose concentration, t = 120 / glucose concentration, t = 180 / glucose concentration, t = 240: E. coli; for glucose concentration, t = 0: 0 minutes; for glucose concentration, t = 60: 60 minutes; for glucose concentration, t = 120: 120 minutes; for glucose concentration, t = 180: 180 minutes; for glucose concentration, t = 240: 240 minutes
Protocol: Strains of Escherichia coli (ATCC 25922), Enterococcus faecalis (ATCC 29212) and Staphylococcus aureus (ATCC 29213) were inoculated in blood culture bottles (SVA, Uppsala, Sweden) and cultivated according to the manufacturer's instructions until positive.
Medium from each blood culture bottle was diluted 1:100 with cation adjusted Mueller-Hinton broth (SVA, Uppsala, Sweden) supplemented with glucose to a concentration of 1.0 mg/mL.
Glucose concentrations were measured at 0, 60, 120, 180, and 240 minutes using a WaveSense Jazz glucometer (AgaMatrix, Inc., Salem, N.H., USA) with accompanying test strips.
Susceptibility scores corresponding to MIC values were calculated as described above. A 80% threshold was applied, i.e. the lowest concentration of antibiotic that entailed a rate of change in glucose concentration that was equal to or less than 80% of the reference was selected as the Minimal Inhibitory Concentration. The rate of change was calculated between the measurements at 60 and 180 minutes.

[4] = tested on: Enterococcus faecalis ATCC 29212; conditions: E.faecalis, cited from earlier work
[5] = range obtained by EUCAST from ISO 20776-1: 2006
[6] = reference value, Mueller-Hinton agar, incubation 18±2 h, N/A = not susceptible

## CO[C@@]1(NC(=O)Cc2cccs2)C(=O)N2C(C(=O)O)=C(COC(N)=O)CS[C@@H]21 [Cefoxitin, cefoxitin]
[1]
  MIC, EUCAST, range in parentheses: (1-4) ug/mL
  MIC, EUCAST: 2 µg/mL (≈ 4.68 µM)
[2]; [5]
  MIC, EUCAST, range in parentheses: (2-8) ug/mL
[2]; [6]
  MIC, EUCAST: 4 µg/mL (≈ 9.36 µM)
[3]; antibiotic 0.25 μg/mL
  F = the rate of change in glucose concentration in relation to the reference: 165%
  dC/dT (rate of change in glucose concentration): 102
  glucose concentration, t = 0: 145
  glucose concentration, t = 60: 157
  glucose concentration, t = 120: 143
  glucose concentration, t = 180: 41
[3]; antibiotic 0.5 μg/mL
  F = the rate of change in glucose concentration in relation to the reference: 139%
  dC/dT (rate of change in glucose concentration): 86
  glucose concentration, t = 0: 139
  glucose concentration, t = 60: 154
  glucose concentration, t = 120: 140
  glucose concentration, t = 180: 54
[3]; antibiotic 1 μg/mL
  F = the rate of change in glucose concentration in relation to the reference: 129%
  dC/dT (rate of change in glucose concentration): 80
  glucose concentration, t = 0: 144
  glucose concentration, t = 60: 150
  glucose concentration, t = 120: 143
  glucose concentration, t = 180: 63
[3]; antibiotic 2 μg/mL
  F = the rate of change in glucose concentration in relation to the reference: 102%
  dC/dT (rate of change in glucose concentration): 63
  glucose concentration, t = 0: 143
  glucose concentration, t = 60: 163
  glucose concentration, t = 120: 138
  glucose concentration, t = 180: 75
[3]; antibiotic 4 μg/mL
  F = the rate of change in glucose concentration in relation to the reference: 19%
  dC/dT (rate of change in glucose concentration): 12
  glucose concentration, t = 0: 146
  glucose concentration, t = 60: 149
  glucose concentration, t = 120: 140
  glucose concentration, t = 180: 125
  glucose concentration, t = 240: 116
[3]; antibiotic 8 μg/mL
  F = the rate of change in glucose concentration in relation to the reference: 18%
  dC/dT (rate of change in glucose concentration): 11
  glucose concentration, t = 0: 145
  glucose concentration, t = 60: 164
  glucose concentration, t = 120: 149
  glucose concentration, t = 180: 132
  glucose concentration, t = 240: 127
[3]; antibiotic 16 μg/mL
  F = the rate of change in glucose concentration in relation to the reference: 6%
  dC/dT (rate of change in glucose concentration): 4
  glucose concentration, t = 0: 142
  glucose concentration, t = 60: 152
  glucose concentration, t = 120: 152
  glucose concentration, t = 180: 141
  glucose concentration, t = 240: 145
[3]; antibiotic 32 μg/mL
  F = the rate of change in glucose concentration in relation to the reference: 5%
  dC/dT (rate of change in glucose concentration): 3
  glucose concentration, t = 0: 146
  glucose concentration, t = 60: 150
  glucose concentration, t = 120: 143
  glucose concentration, t = 180: 142
  glucose concentration, t = 240: 137
[3]; Escherichia coli, ATCC25922, E.coli, 80% threshold of reference rate of change, 60 to 180 minutes, N/A = not susceptible, no MIC value can be calculated, read-out: MIC, Measured
  MIC: 4 µg/mL (≈ 9.36 µM)

## CN[C@H](CC(C)C)C(=O)N[C@H]1C(=O)N[C@@H](CC(N)=O)C(=O)N[C@H]2C(=O)N[C@H]3C(=O)N[C@H](C(=O)N[C@H](C(=O)O)c4cc(O)cc(O)c4-c4cc3ccc4O)[C@H](O)c3ccc(c(Cl)c3)Oc3cc2cc(c3O[C@@H]2O[C@H](CO)[C@@H](O)[C@H](O)[C@H]2O[C@H]2C[C@](C)(N)[C@H](O)[C@H](C)O2)Oc2ccc(cc2Cl)[C@H]1O [Vancomycin, vancomycin]
[1]
  MIC, EUCAST, range in parentheses: (0.5-2) ug/mL
  MIC, EUCAST: 1 µg/mL (≈ 0.69 µM)
[3]; antibiotic 0.0625 μg/mL
  F = the rate of change in glucose concentration in relation to the reference: 67%
  dC/dT (rate of change in glucose concentration): 42
  glucose concentration, t = 60: 148
  glucose concentration, t = 120: 144
  glucose concentration, t = 180: 65
[3]; antibiotic 0.125 μg/mL
  F = the rate of change in glucose concentration in relation to the reference: 71%
  dC/dT (rate of change in glucose concentration): 44
  glucose concentration, t = 60: 153
  glucose concentration, t = 120: 154
  glucose concentration, t = 180: 65
[3]; antibiotic 0.25 μg/mL
  F = the rate of change in glucose concentration in relation to the reference: 68%
  dC/dT (rate of change in glucose concentration): 42
  glucose concentration, t = 60: 150
  glucose concentration, t = 120: 145
  glucose concentration, t = 180: 66
[3]; antibiotic 0.5 μg/mL
  F = the rate of change in glucose concentration in relation to the reference: 65%
  dC/dT (rate of change in glucose concentration): 41
  glucose concentration, t = 60: 149
  glucose concentration, t = 120: 145
  glucose concentration, t = 180: 68
[3]; antibiotic 1 μg/mL
  F = the rate of change in glucose concentration in relation to the reference: 73%
  dC/dT (rate of change in glucose concentration): 45
  glucose concentration, t = 60: 155
  glucose concentration, t = 120: 149
  glucose concentration, t = 180: 65
[3]; antibiotic 2 μg/mL
  F = the rate of change in glucose concentration in relation to the reference: 65%
  dC/dT (rate of change in glucose concentration): 40
  glucose concentration, t = 60: 147
  glucose concentration, t = 120: 151
  glucose concentration, t = 180: 67
[3]; antibiotic 4 μg/mL
  F = the rate of change in glucose concentration in relation to the reference: 69%
  dC/dT (rate of change in glucose concentration): 43
  glucose concentration, t = 60: 147
  glucose concentration, t = 120: 145
  glucose concentration, t = 180: 61
[3]; antibiotic 8 μg/mL
  F = the rate of change in glucose concentration in relation to the reference: 87%
  dC/dT (rate of change in glucose concentration): 54
  glucose concentration, t = 60: 159
  glucose concentration, t = 120: 147
  glucose concentration, t = 180: 51
[4]; [5]
  MIC, EUCAST, range in parentheses: (1-4) ug/mL
[4]; [6]
  MIC, EUCAST: 2 µg/mL (≈ 1.38 µM)
